Reference: article PMC10112504, “Novel 4-thiophenyl-pyrazole, pyridine, and pyrimidine derivatives as potential antitumor candidates targeting both EGFR and VEGFR-2; design, synthesis, biological evaluations, and in silico studies” (RSC Advances, 2023)
Like-named read-outs stand apart in the source and are kept apart here.

Key:
[1] = system: HepG-2; assay: Anti-proliferative activity, SRB colorimetric assay; format: cell-based; details: for IC50: HepG-2 cancer cell line, SRB assay, read-out: Cell lines (IC50 μM) HepG-2; for anti-proliferative activity against HepG-2, in words: authors' grading of Table 1 values, key not given
[2] = system: MCF-7; assay: as above; format: cell-based; details: for IC50: Homo sapiens, MCF7, MCF-7 cancer cell line, SRB assay, read-out: Cell lines (IC50 μM) MCF-7; for anti-proliferative activity against MCF-7, in words: authors' grading of Table 1 values, key not given
[3] = system: S. aureus; assay: Antibacterial activity, inhibition zone approach; format: cell-based, Staphylococcus aureus; details: for S. aureus Diameter of inhibition zone (mm): Gram-positive bacteria; for S. aureus % Activity index: gentamicin = 100; for antimicrobial activity with S. aureus, in words: authors' grading of Table 2 values, key not given
[4] = system: B. subtilis; assay: Antibacterial activity, inhibition zone approach; format: cell-based, Bacillus subtilis; details: for B. subtilis Diameter of inhibition zone (mm): Gram-positive bacteria; for B. subtilis % Activity index: gentamicin = 100; for antimicrobial activity with B. subtilis, in words: authors' grading of Table 2 values, key not given
[5] = system: E. coli; assay: Antibacterial activity, inhibition zone approach; format: cell-based, Escherichia coli; details: for E. coli Diameter of inhibition zone (mm): Gram-negative bacteria; for E. coli % Activity index: gentamicin = 100; for antimicrobial activity with E. coli, in words: authors' grading of Table 2 values, key not given
[6] = system: P. aeuroginosa; assay: Antibacterial activity, inhibition zone approach; format: cell-based, Pseudomonas aeuroginosa; details: for P. aeuroginosa Diameter of inhibition zone (mm): Gram-negative bacteria; for P. aeuroginosa % Activity index: gentamicin = 100; for antimicrobial activity with P. aeuroginosa, in words: authors' grading of Table 2 values, key not given
[7] = system: C. albicans; assay: Antifungal activity, inhibition zone approach; format: cell-based, Candida albicans; details: for C. albicans Diameter of inhibition zone (mm): Fungi; for C. albicans % Activity index: ketoconazole = 100; for antimicrobial activity with C. albicans, in words: authors' grading of Table 2 values, key not given
[8] = system: A. flavus; assay: Antifungal activity, inhibition zone approach; format: cell-based, Aspergillus flavus; details: for A. flavus Diameter of inhibition zone (mm): Fungi; for A. flavus % Activity index: ketoconazole = 100; for antimicrobial activity with A. flavus, in words: authors' grading of Table 2 values, key not given

SMILES	IC50 ([1]; Homo sapiens, HepG2)	IC50 [2]	S. aureus Diameter of inhibition zone (mm) [3]	S. aureus % Activity index [3]	B. subtilis Diameter of inhibition zone (mm) [4]	B. subtilis % Activity index [4]	E. coli Diameter of inhibition zone (mm) [5]	E. coli % Activity index [5]	P. aeuroginosa Diameter of inhibition zone (mm) [6]	P. aeuroginosa % Activity index [6]	C. albicans Diameter of inhibition zone (mm) [7]	C. albicans % Activity index [7]	A. flavus Diameter of inhibition zone (mm) [8]	A. flavus % Activity index [8]	melting point	further results
CCOC(=O)c1c(-c2cccs2)cc(-c2ccc(O)cc2)[nH]c1=O [4a, Ethyl 6-(4-hydroxyphenyl)-2-oxo-4-(thiophen-2-yl)-1,2-dihydropyridine-3-carboxylate]	44.5 ± 2.6 µM	41.2 ± 2.4 µM	6 mm	33.3%	10 mm	45.4%	5 mm	23.8%	8 mm	42.1%	13 mm	46.4%	11 mm	42.3%	125 °C	anti-proliferative activity against HepG-2, in words [1]: moderate; anti-proliferative activity against MCF-7, in words [2]: moderate
CNC(C)C1CCC(N)C(OC2C(N)CC(N)C(OC3OCC(C)(O)C(NC)C3O)C2O)O1 (stereo not shown) [Gentamicin, reference compound]			18 mm	100%	22 mm	100%	21 mm	100%	19 mm	100%						
Nc1nc(-c2ccc(O)cc2)cc(-c2cccs2)n1 [11a, 4-(2-amino-6-(thiophen-2-yl)pyrimidin-4-yl)phenol]	52.9 ± 2.9 µM	61.1 ± 3.4 µM	7 mm		10 mm		6 mm		11 mm		11 mm		7 mm			antimicrobial activity with S. aureus, in words [3]: moderate; antimicrobial activity with B. subtilis, in words [4]: moderate; antimicrobial activity with E. coli, in words [5]: very strong; antimicrobial activity with P. aeuroginosa, in words [6]: moderate; antimicrobial activity with C. albicans, in words [7]: moderate; antimicrobial activity with A. flavus, in words [8]: weak
NS(=O)(=O)c1ccc(NC(=O)CN2N=C(c3ccc(O)cc3)CC2c2cccs2)cc1 (stereo not shown) [16a, 2-(3-(4-hydroxyphenyl)-5-(thiophen-2-yl)-4,5-dihydro-1H-pyrazol-1-yl)-N-(4-sulfamoylphenyl)acetamide]	34.5 ± 2.2 µM	29.1 ± 2 µM	8 mm	44.4%	11 mm	50.0%	7 mm	33.3%	11 mm	57.9%	15 mm	53.6%	12 mm	46.1%	158 to 160 °C	anti-proliferative activity against HepG-2, in words [1]: moderate; anti-proliferative activity against MCF-7, in words [2]: moderate; antimicrobial activity with S. aureus, in words [3]: moderate; antimicrobial activity with B. subtilis, in words [4]: moderate; antimicrobial activity with E. coli, in words [5]: weak; antimicrobial activity with P. aeuroginosa, in words [6]: moderate; antimicrobial activity with C. albicans, in words [7]: moderate; antimicrobial activity with A. flavus, in words [8]: moderate
CC(=O)c1c(-c2cccs2)cc(-c2ccc(O)cc2)[nH]c1=O [3a, 3-Acetyl-6-(4-hydroxyphenyl)-4-(thiophen-2-yl)pyridin-2(1H)-one]	53.2 ± 3.1 µM	48.4 ± 2.7 µM	5 mm	27.8%	9 mm	40.9%	4 mm	19.0%	6 mm	31.6%	11 mm	39.3%	10 mm	38.5%	220 °C	anti-proliferative activity against HepG-2, in words [1]: moderate; anti-proliferative activity against MCF-7, in words [2]: moderate
CCOC(=O)CSC(=S)N1N=C(c2ccc(O)cc2)CC1c1cccs1 (stereo not shown) [17a, Ethyl 2-((3-(4-hydroxyphenyl)-5-(thiophen-2-yl)-4,5-dihydro-1H-pyrazole-1-carbonothioyl)thio)acetate]	62.4 ± 3.3 µM	36.9 ± 2.2 µM	6 mm	33.3%	11 mm	50.0%	7 mm	33.3%	9 mm	47.4%	10 mm	35.7%	8 mm	30.8%	200 °C	anti-proliferative activity against HepG-2, in words [1]: weak; anti-proliferative activity against MCF-7, in words [2]: moderate; antimicrobial activity with S. aureus, in words [3]: weak; antimicrobial activity with B. subtilis, in words [4]: weak; antimicrobial activity with E. coli, in words [5]: weak; antimicrobial activity with P. aeuroginosa, in words [6]: weak; antimicrobial activity with C. albicans, in words [7]: weak; antimicrobial activity with A. flavus, in words [8]: weak
CC(=O)N1CCN(c2ccc(OCC3COC(Cn4ccnc4)(c4ccc(Cl)cc4Cl)O3)cc2)CC1 (stereo not shown) [Ketoconazole, reference compound]											28 mm	100%	26 mm	100%		
Oc1ccc(C2=NN(C(=S)Nc3ccccc3)C(c3cccs3)C2)cc1 (stereo not shown) [14a, 3-(4-hydroxyphenyl)-N-phenyl-5-(thiophen-2-yl)-4,5-dihydro-1H-pyrazole-1-carbothioamide]															245 to 247 °C	
COc1cccc2c1C(=O)c1c(O)c3c(c(O)c1C2=O)C[C@@](O)(C(=O)CO)C[C@@H]3O[C@H]1C[C@H](N)[C@H](O)[C@H](C)O1 [DOX, reference compound]																IC50 [1]: 4.5 ± 0.2 µM
CC(=O)N1N=C(c2ccc(Cl)c(Cl)c2)CC1c1cccs1 (stereo not shown) [8b, 1-(3-(3,4-dichlorophenyl)-5-(thiophen-2-yl)-4,5-dihydro-1H-pyrazol-1-yl)ethan-1-one]	74.3 ± 3.5 µM	72.6 ± 3.9 µM	3 mm	16.7%	7 mm	31.8%			4 mm	21.0%	9 mm	32.1%	5 mm	19.2%	160 °C	
O=C(/C=C/c1cccs1)c1ccc(Cl)c(Cl)c1 [1b, (E)-1-(3,4-dichlorophenyl)-3-(thiophen-2-yl)prop-2-en-1-one]	84.2 ± 4.2 µM	> 100 µM													85 °C	
O=C(/C=C/c1cccs1)c1ccc(O)cc1 [1a, (E)-1-(4-hydroxyphenyl)-3-(thiophen-2-yl)prop-2-en-1-one]	87.6 ± 4.2 µM	82.5 ± 4.2 µM									3 mm	10.7%				
Oc1ccc(-c2cc(-c3cccs3)n(-c3nc4nc5ccccc5nc4s3)n2)cc1 [12a, 4-(1-(thiazolo[4,5-b]quinoxalin-2-yl)-5-(thiophen-2-yl)-1H-pyrazol-3-yl)phenol]	74.7 ± 3.9 µM	65 ± 3.6 µM			5 mm	22.7%			3 mm	15.8%	6 mm	21.4%			250 to 252 °C	
Clc1ccc(C2=NN(c3ccccc3)C(c3cccs3)C2)cc1Cl (stereo not shown) [9b, 3-(3,4-dichlorophenyl)-1-phenyl-5-(thiophen-2-yl)-4,5-dihydro-1H-pyrazole]	48.1 ± 2.7 µM	67.3 ± 3.7 µM			6 mm	27.3%					8 mm	28.6%	3 mm	11.5%	130 °C	
N#Cc1c(-c2cccs2)cc(-c2ccc(Cl)c(Cl)c2)nc1N [2b, 2-Amino-6-(3,4-dichlorophenyl)-4-(thiophen-2-yl)nicotinonitrile]	59.5 ± 3.1 µM	55.5 ± 3.2 µM	9 mm		14 mm		8 mm		11 mm		17 mm		10 mm			antimicrobial activity with S. aureus, in words [3]: moderate; antimicrobial activity with B. subtilis, in words [4]: strong; antimicrobial activity with E. coli, in words [5]: moderate; antimicrobial activity with P. aeuroginosa, in words [6]: strong; antimicrobial activity with C. albicans, in words [7]: strong; antimicrobial activity with A. flavus, in words [8]: moderate
